Data as given in the NIST ThermoML archive (doi:10.1016/j.fluid.2008.02.001).
Where “and” joins values, the source holds several entries; their conditions need not be identical. Identical values can stand only once.

Details: Liquid, Transpiration method

CCC(=O)OC(C)(C)CC [1,1-dimethylpropyl propanoate]
Details | vapor or sublimation pressure [kPa]
273.9 K | 0.1147
274.9 K | 0.123
276.9 K | 0.1423
278.9 K | 0.1651
281 K | 0.1902
283 K | 0.2208
286 K | 0.2725
289.1 K | 0.3316
292.2 K | 0.4061
295.2 K | 0.4966
298.2 K | 0.5971
301.2 K | 0.7239
304.3 K | 0.8484
307.4 K | 1.025
310.4 K | 1.237

COC(=O)CC(C)(C)C [methyl 3,3-dimethylbutanoate]
Details | vapor or sublimation pressure [kPa]
273.9 K | 0.3046
274.4 K | 0.3169
275.9 K | 0.3519
277.4 K | 0.3954
278.7 K | 0.436
279.5 K | 0.4645
281.5 K | 0.5226
282.5 K | 0.5675
283.3 K | 0.5937
285.5 K | 0.6878
288.2 K | 0.8223
288.6 K | 0.8158
291.6 K | 0.9977
293.2 K | 1.131
294.6 K | 1.195
297.7 K | 1.436
298.2 K | 1.533
301.8 K | 1.854
303.2 K | 2.042
303.8 K | 2.089
306.9 K | 2.498
308.2 K | 2.737
309 K | 2.783
313.2 K | 3.591

CCCC(=O)OC [methyl butanoate]
Details | vapor or sublimation pressure
274.3 K | 1.06 kPa
276.4 K | 1.292 kPa
278.2 K | 1.397 kPa
279.4 K | 1.492 kPa
281.3 K | 1.627 kPa
281.6 K | 1.705 kPa
283.4 K | 1.854 kPa
283.7 K | 1.965 kPa
285.5 K | 2.102 kPa
285.8 K | 2.24 kPa
288.3 K | 2.537 kPa and 2.523 kPa and 2.466 kPa
290.3 K | 2.927 kPa
291.2 K | 3.085 kPa and 2.937 kPa
292.2 K | 3.214 kPa
293.2 K | 3.382 kPa
294.3 K | 3.717 kPa
295.3 K | 4.065 kPa
298.1 K | 4.479 kPa
300.2 K | 5.224 kPa
301.2 K | 5.303 kPa
303.2 K | 5.697 kPa

CCCCOC(=O)C(C)CC (centres undefined) [butanoic acid, 2-methyl-, butyl ester]
Details | vapor or sublimation pressure [kPa]
274.2 K | 0.02305
276.2 K | 0.02587
278.2 K | 0.03181
280.2 K | 0.0362
283.2 K | 0.04723
288.1 K | 0.06951
293.1 K | 0.1043
298.1 K | 0.1517
303.2 K | 0.2142
308.2 K | 0.3099
313.3 K | 0.4305
316.2 K | 0.5454
319.2 K | 0.6694

CCC(C)(C)OC(C)=O [1,1-dimethylpropyl acetate]
Details | vapor or sublimation pressure [kPa]
273.7 K | 0.3855
274 K | 0.4017
275.5 K | 0.4449
277.5 K | 0.5063
278.6 K | 0.5244
279.5 K | 0.5659
281.6 K | 0.6399
283.5 K | 0.716
283.6 K | 0.7353
286.6 K | 0.878
288.4 K | 0.9539
289.7 K | 1.053
292.7 K | 1.218
293.5 K | 1.336
295.8 K | 1.492
298.4 K | 1.698
298.8 K | 1.785
301.9 K | 2.079
303.4 K | 2.33
304.9 K | 2.418
307.9 K | 2.829
308.4 K | 2.994

CCCCCCC(=O)OC [methyl heptanoate]
Details | vapor or sublimation pressure [kPa]
278.1 K | 0.03453
283.5 K | 0.05365
286.4 K | 0.06767
288.3 K | 0.0791
290.3 K | 0.09122
293.2 K | 0.1164
296.2 K | 0.1424
298.2 K | 0.1642
300.3 K | 0.1892
303.1 K | 0.2326
306.1 K | 0.2838
308.2 K | 0.3321
310.2 K | 0.3804
313.2 K | 0.4658

CCCCC(=O)OC [methyl pentanoate]
Details | vapor or sublimation pressure
274.9 K | 0.3386 kPa
275.2 K | 0.3442 kPa
278.2 K | 0.4198 kPa
279.4 K | 0.4589 kPa
281.2 K | 0.5173 kPa
282.6 K | 0.5608 kPa
284.2 K | 0.6396 kPa
284.3 K | 0.6 kPa
284.5 K | 0.6182 kPa
285.5 K | 0.6907 kPa
287.4 K | 0.7539 kPa
288.4 K | 0.7888 kPa and 0.7837 kPa
288.5 K | 0.8195 kPa
288.7 K | 0.8268 kPa
289.2 K | 0.873 kPa
290.3 K | 0.9304 kPa
292.4 K | 1.029 kPa
293.3 K | 1.09 kPa
293.4 K | 1.125 kPa
294.5 K | 1.227 kPa
296.2 K | 1.327 kPa
297.5 K | 1.511 kPa
298.3 K | 1.517 kPa
299.2 K | 1.615 kPa and 1.582 kPa
302.2 K | 1.974 kPa and 1.937 kPa
305.2 K | 2.273 kPa
308.2 K | 2.653 kPa
311.2 K | 3.11 kPa

CC(C)COC(=O)C(C)C [2-methylpropyl 2-methylpropanoate]
Details | vapor or sublimation pressure [kPa]
274.2 K | 0.1054
276.2 K | 0.1253
278.2 K | 0.1479
283.2 K | 0.2118
288.2 K | 0.2962
293.2 K | 0.4346
298.2 K | 0.6003
303.3 K | 0.8274
308.4 K | 1.137
311.2 K | 1.363
313.4 K | 1.497
316.2 K | 1.851
319.2 K | 2.224

CCCCCC(=O)OC [methyl hexanoate]
Details | vapor or sublimation pressure
280.7 K | 0.1387 kPa
283.6 K | 0.1707 kPa
284.6 K | 0.1839 kPa
286.6 K | 0.2147 kPa
287.6 K | 0.2219 kPa
289.5 K | 0.2598 kPa
290.5 K | 0.2793 kPa and 0.2693 kPa
292.5 K | 0.3111 kPa
293.3 K | 0.3367 kPa
293.4 K | 0.3489 kPa
293.5 K | 0.3435 kPa
295.4 K | 0.3851 kPa
296.4 K | 0.4226 kPa
298.3 K | 0.4594 kPa
298.4 K | 0.4697 kPa
300.3 K | 0.5403 kPa
303.3 K | 0.6501 kPa
304.3 K | 0.7261 kPa
308.3 K | 0.8925 kPa
309.3 K | 0.9193 kPa
312.3 K | 1.147 kPa and 1.048 kPa
316.3 K | 1.458 kPa
320.4 K | 1.764 kPa
324.4 K | 2.217 kPa
328.4 K | 2.678 kPa
331.4 K | 3.178 kPa

CCCCOC(=O)C(C)(C)C [butyl 2,2-dimethylpropanoate]
Details | vapor or sublimation pressure [kPa]
273.6 K | 0.0462
273.9 K | 0.04812
274.7 K | 0.0517
276.5 K | 0.06076
278.4 K | 0.06784
282.6 K | 0.09472
283.2 K | 0.09954
285.6 K | 0.1239
288.3 K | 0.1447
288.7 K | 0.1514
291.7 K | 0.1872
293.2 K | 0.2073
294.8 K | 0.2343
297.8 K | 0.2886
298.1 K | 0.2847
300.8 K | 0.3473
303.3 K | 0.4149
303.9 K | 0.429
307 K | 0.5176
308.3 K | 0.5552
309 K | 0.596
313.3 K | 0.7473

CCCC(=O)OC(C)(C)CC [1,1-dimethylpropyl butanoate]
Details | vapor or sublimation pressure [kPa]
274.5 K | 0.04772
276.5 K | 0.05746
278.2 K | 0.06508
278.6 K | 0.06692
280.6 K | 0.07832
282.6 K | 0.09058
283.3 K | 0.09732
285.6 K | 0.1128
288.2 K | 0.1456
288.7 K | 0.1441
291.7 K | 0.1788
293.2 K | 0.2021
294.8 K | 0.22
297.4 K | 0.2678
298.2 K | 0.2935
300.4 K | 0.3315
303.2 K | 0.4074
303.5 K | 0.402
306.5 K | 0.4906
308.2 K | 0.5588
309.5 K | 0.5946
